Laboratory results as given in US20020151583A1, “Prevention of liver cancer by administration of simvastatin” (priority 2001, published 2002).

Experiments:
[1] = system: liver cancer; assay: Clinical case reports: imaging studies of the liver (abdominal ultrasound, MRI) for new liver masses; format: in vivo, patients
Protocol: (§1) In order to avoid unforeseen side effects, the treatment was initiated at a 20 mg dose once daily for one week. The dose was then increased to 40 mg daily during the following week, and was again increased to 60 mg daily during the third week. During the fourth week, the dose was increased to 80 mg daily (two tablets of 40 mg each) and remained the same thereafter. Following the administration of simvastatin as described above, the patients' alphafetoprotein levels were monitored on a monthly basis until values reached normal levels and then every three months thereafter in association with liver function tests and coagulation studies as part of a follow-up. In addition, an abdominal ultrasound test was performed every four months in an attempt to identify any new liver masses, and MRI (magnetic resonance imaging) studies of the liver were performed.

[2] = system: alphafetoprotein; assay: Clinical case reports: monitoring of serum alphafetoprotein level under daily oral simvastatin; format: in vivo, patients
Protocol: as §1

## CCC(C)(C)C(=O)OC1C[C@@H](C)C=C2C=C[C@H](C)[C@H](CC[C@@H]3C[C@@H](O)CC(=O)O3)[C@H]21 (relative stereo) [simvastatin, butanoic acid, 2,2-dimethyl-,1,2,3,7,8,8a-hexahydro-3,7-dimethyl-8-[2-(tetrahydro-4-hydroxy-6-oxo-2H-pyran-2-yl)-ethyl]-1-naphthalenyl ester, [1S-[1α,3α,7β,8β(2S*,4S*),-8aβ]]]
[1]; Case No. 1
  liver tumor mass in repeated imaging studies: never showed any liver tumor mass
[1]; Case No. 2
  liver tumor mass in repeated imaging studies: never showed any liver tumor mass
[1]; Case No. 3
  liver tumor mass in repeated imaging studies: never showed any liver tumor mass
[1]; patients with an elevated alphafetoprotein level who underwent treatment
  subsequent development of liver cancer: None of the patients subsequently developed liver cancer
[1]; patients with known liver diseases at high risk, liver diseases continued to progress
  malignancy detected by careful imaging studies: no malignancy was ever detected
[2]; Case No. 1: Hepatitis B, rapidly increasing alphafetoprotein, progressively increased dosages of simvastatin
  time until alphafetoprotein level normalized: four
[2]; Case No. 1: after stopping simvastatin
  alphafetoprotein level after patient stopped taking simvastatin: 33
[2]; Case No. 1: re-introduced at progressively increased dosages
  alphafetoprotein level after simvastatin was re-introduced: normalized and has remained normalized
[2]; Case No. 2
  alphafetoprotein level on maintenance dosages of simvastatin: remained normalized
[2]; Case No. 2: Hepatitis B, progressively increasing alphafetoprotein, increasing doses of simvastatin
  time until alphafetoprotein level normalized: ≤ 5 months
[2]; Case No. 3
  alphafetoprotein level after normalization: remained normalized
[2]; Case No. 3: Hepatitis C, alphafetoprotein above 50 before treatment, protocol administration
  time until alphafetoprotein level normalized: ≤ 2 months
[2]; Case No. 4: patients with Hepatitis B and C or other liver cirrhosis, normal alphafetoprotein, simvastatin daily since diagnosis
  elevation of alphafetoprotein during observation period: None of these patients showed an elevation of alphafetoprotein
[2]; patients with an elevated alphafetoprotein level (above 10 ng/mL) who underwent treatment
  course of alphafetoprotein level: progressively decline over several weeks to several months to normal values
